In publication PMC12294558, “New 1,2,4-Triazole Derivatives with a N-Mannich Base Structure Based on a 4,6-Dimethylpyridine Scaffold as Anticancer Agents: Design, Synthesis, Biological Evaluation, and Molecular Modeling” (International Journal of Molecular Sciences, 2025):
Marks after values point to notes of the source that are not given here.

Columns and labels:
[1] = MTT viability assay, normal colonic epithelial cells; format: cell-based, human; conditions: human, CCD 841 CoTr normal colonic epithelial cells, Non-toxic = no toxicity in tested range 1–500 μM, read-out: CC50 ± SD, CCD 841 CoTr
Description: (§1) The cytotoxic effects of ten newly synthesized N-Mannich bases were assessed on the normal human intestinal epithelium (CCD 841 CoTr) and cancer cell lines: gastric cancer (EPG) and four colorectal cancer lines (Caco-2, LoVo, LoVo/Dx, and HT-29). Cell viability was evaluated using the MTT assay in accordance with Annex C of ISO 10993-5 [33].
(§2) The biological activity of the newly synthesized compounds was assessed in the context of anticancer activity. For this purpose, several gastrointestinal cancer lines were selected: gastric cancer (EPG 257, which belongs to the collection of the Laboratory of Cell Culture and Advanced Therapy at the University of Environmental and Life Sciences in Wrocław), and four colorectal cancer cell lines (LoVo, Caco-2, and HT-29) were obtained from the European Collection of Authenticated Cell Cultures (ECACC) and were delivered by Sigma-Aldrich, a certified distributor for the biobank. Additionally, LoVo cells were used to develop a doxorubicin-resistant subline, referred to as LoVo/Dx. Resistance was induced through gradual adaptation to increasing concentrations of doxorubicin, starting from 0.1 µg/mL and incrementally raised to 0.8 µg/mL. After reaching the maximum concentration, the cells were maintained in a medium containing 0.4 µg/mL doxorubicin for a period of three months to stabilize the resistant phenotype. […] The resulting LoVo/Dx subline, resistant to doxorubicin, was cultured in DMEM/F-12 medium and utilized in assays evaluating the effectiveness of novel compounds against multidrug-resistant cancer cells. […] The non-cancerous cell control was normal colonic epithelial cells (CCD 841 CoTr from American Type Culture Collection, (ATCC, Manassas, VA, USA)). Cell cultures were performed under standard conditions (5% CO2, 95% humidity, and 37 °C). Each cell line was cultured in the recommended medium: (1) HT-29 in McCoy’s 5a, (2) Caco-2 in Minimal Essential Medium (MEM, Biological Industries, Beit Haemek, Israel), (3) CCD 841 CoTr in Dulbecco’s Modified Eagle Medium (DMEM, Biological Industries, Beit Haemek, Israel), (4) LoVo in Dulbecco’s Modified Eagle Medium/F-12 (DMEM/F-12; Biological Industries, Beit Haemek, Israel), (5) LoVo/Dx in DMEM/F-12, and (6) EPG in DMEM. Culture media were supplemented with 10% fetal bovine serum (FBS, Sigma-Aldrich, Darmstadt, Germany) and antibiotics (penicillin and streptomycin; Sigma-Aldrich, Darmstadt, Germany). For assays, trypsinized (TrypLE solution, Thermo Fisher Scientific, Waltham, MA, USA) cells were seeded at appropriate densities of 10,000 cells per well for MTT and determination of apoptotic and necrotic cell numbers; 30,000 cells per well for the rhodamine accumulation assay; and 500,000 cells per well for ELISA tests.
(§3) The cytotoxicity of the compounds and drugs used as controls was assessed using the MTT assay. The assay also included a DMSO control. After seeding and allowing the cells to adhere overnight, they were treated with the tested compounds and drugs for another 24 h. After this time, the supernatant was removed, and a 1 mg/mL MTT solution was added for 2 h in 5% CO2, 95% humidity, at 37 °C. The supernatant was then removed, and isopropanol was added to dissolve the purple crystals over 30 min by shaking. Absorbance was measured at 570 nm in a Multiskan GO microplate reader (Thermo Fisher Scientific; Waltham, MA, USA). All reagents used for the assays were purchased from Sigma-Aldrich, Darmstadt, Germany.
(§4) Biological assays were performed in three independent replicates, each involving four samples. ELISA determinations were repeated three times.

[2] = system: EPG cells; assay: MTT viability assay, gastric cancer cells; format: cell-based, human; conditions: for SI, EPG: CC50 CCD 841 CoTr / CC50 EPG; for CC50: Homo sapiens, MTT, 24 h, read-out: CC50 ± SD, EPG
Description: as §1, §2, §3, §4

[3] = system: Caco-2 cells; assay: MTT viability assay, colorectal cancer cells Caco-2; format: cell-based, human; conditions: for SI, Caco-2: CC50 CCD 841 CoTr / CC50 Caco-2; for CC50: Homo sapiens, Caco-2, MTT, 24 h, read-out: CC50 ± SD, Caco-2
Description: as §1, §2, §3, §4

[4] = system: LoVo cells; assay: MTT viability assay, colorectal cancer cells LoVo; format: cell-based, human; conditions: for SI, LoVo: CC50 CCD 841 CoTr / CC50 LoVo; for CC50: Homo sapiens, LoVo, MTT, 24 h, Non-toxic = no toxicity in tested range 1–500 μM, read-out: CC50 ± SD, LoVo
Description: as §1, §2, §3, §4

[5] = system: LoVo/Dx cells; assay: MTT viability assay, doxorubicin-resistant LoVo/Dx; format: cell-based, human; conditions: for SI, LoVo/Dx: CC50 CCD 841 CoTr / CC50 LoVo/Dx; for CC50: Homo sapiens, LoVo/DX, MTT, 24 h, read-out: CC50 ± SD, LoVo/Dx
Description: as §1, §2, §3, §4

[6] = system: HT-29 cells; assay: MTT viability assay, colorectal cancer cells HT-29; format: cell-based, human; conditions: for SI, HT-29: CC50 CCD 841 CoTr / CC50 HT-29; for CC50: Homo sapiens, HT-29, MTT, 24 h, read-out: CC50 ± SD, HT-29
Description: as §1, §2, §3, §4

[7] = system: CCD 841 CoTr cells; assay: MTT viability assay, normal colonic epithelial cells; format: cell-based, human; conditions: 24 h, Non-toxic = no toxicity in tested range 1–500 μM
Description: as §1, §2, §3, §4

[8] = system: p53; assay: p53 Human ELISA on HT-29 cell lysates; format: cell-based; conditions: HT-29, 1 µM, 24 h
Description: (§5) To check the effect of compound 6 on the level of p-53 and caspase-3 protein, another test was performed on HT-29 cells, taking doxorubicin as the reference drug.
(§6) To assess the level of caspase-3 and p53 protein, HT-29 cell lysates were used after 24 h of incubation with compounds 5 and 6. The supernatant was collected in the prepared and labeled tubes, the cells from the wells were scraped, and the wells were washed with cold PBS, which was also collected. The tubes were then centrifuged, the supernatant was removed, and the cell pellet was lysed in a cell extraction vessel for 30 min on ice, with […] every 10 min. The lysate was transferred to centrifuge tubes and centrifuged at 13,000 rpm for 10 min at 4 °C. The supernatant was transferred to clean tubes in a microcentrifuge.
(§7) The following kits were used: Human Caspase-3 (active) ELISA Kit (KHO1091) and p53 Human ELISA Kit (BMS256), used following the manufacturer’s instructions. ELISA kits were purchased from Thermo Fisher Scientific (Waltham, MA, USA). The absorbance was measured using a Multiskan GO microplate reader (Thermo Fisher Scientific, Waltham, MA, USA) at wavelengths specific to each kit, as recommended by the manufacturer.

[9] = system: Caspase-3; assay: Human Caspase-3 (active) ELISA on HT-29 cell lysates; format: cell-based; conditions: HT-29, 1 µM, 24 h
Description: as §5, §6, §7

[10] = system: HepG2 cells; design: method as in PMID 36181443; conditions: cited from earlier work
[11] = system: NUGC cell line; design: method as in PMID 25948330; conditions: cited from earlier work
[12] = system: OVCAR-3 cell line; design: method as in PMID 33482607; conditions: cited from earlier work

Row | Structure (SMILES) | CC50 at 24 h [1] [µM] | SI, EPG [2] | CC50 [2] [µM] | SI, Caco-2 [3] | CC50 [3] [µM] | SI, LoVo [4] | CC50 [4] [µM] | SI, LoVo/Dx [5] | CC50 [5] [µM] | SI, HT-29 [6] | CC50 [6] [µM] | CC50 ± SD, CCD 841 CoTr [7] | p53 Conc. ± SD [8] [U/mL] | p53 Fold Change ([8]; versus untreated control) | Caspase-3 Conc. ± SD [9] [ng/mL] | Caspase-3 Fold Change ([9]; versus untreated control) | IC50 [10] [µM] | IC50 [11] [µM] | IC50 [12] [µM]
1 | Cc1cc(C)c(C(=O)NCc2nn(CN3CCN(c4ccccc4)CC3)c(=S)n2-c2ccccc2)c(S)n1 [Compound 4] | 236 ± 3.5 | 1.68 | 141 ± 2.5 | 1.78 | 133 ± 2.7 | 1.18 | 201 ± 4.6 | 1.17 | 201 ± 4.1 | 1.26 | 187.6 ± 1.6 |  |  |  |  |  |  |  | 
2 | O=c1[nH]cc(F)c(=O)[nH]1 [Compound 5-FU, 5-fluorouracil, reference compound] | 61.6 ± 3.7 | 0.55 | 111 ± 3.5 | 0.36 | 170 ± 3.7 | 0.85 | 72.2 ± 1.8 | 0.27 | 226 ± 2.7 | 0.14 | 428.5 ± 2.7 |  |  |  |  |  |  |  | 
3 | Cc1cc(C)c(C(=O)NCc2nn(CN3CCN(c4ccc([N+](=O)[O-])cc4)CC3)c(=S)n2-c2ccccc2)c(S)n1 [Compound 8] |  | >>1 ^c | 142 ± 6.3 | >>1 ^c | 84.3 ± 6.8 | >>1 ^c | 178 ± 5.3 | >>1 ^c | 321 ± 6.8 | >>1 ^c | 306 ± 4.9 | Non-toxic ^b |  |  |  |  |  |  | 
4 | Cc1cc(C)c(C(=O)NCc2nn(CN3CCN(c4cccc(Cl)c4)CC3)c(=S)n2C)c(S)n1 [Compound 9, 4,6-dimethyl-N-[(4-methyl-5-thioxo-2-{[4-(3-chlorophenyl)piperazinyl]methyl}-4,5-dihydro-1H-1,2,4-triazol-3-yl)methyl]-2-sulfanylpyridine-3-carboxamide] |  | >>1 ^c | 231 ± 7.1 | >>1 ^c | 88.6 ± 7.9 | >>1 ^c | 152 ± 2.7 | >>1 ^c | 260 ± 4.1 | >>1 ^c | 253 ± 5.7 | Non-toxic ^b |  |  |  |  |  |  | 
5 | Cc1cc(C)c(C(=O)NCc2nn(CN3CCN(c4ccc([N+](=O)[O-])cc4)CC3)c(=S)n2C)c(S)n1 [Compound 10, 4,6-dimethyl-N-[(4-methyl-5-thioxo-2-{[4-(4-nitrophenyl)piperazinyl]methyl}-4,5-dihydro-1H-1,2,4-triazol-3-yl)methyl]-2-sulfanylpyridine-3-carboxamide] |  | >>1 ^c | 212 ± 3.7 | >>1 ^c | 87.2 ± 5.2 | >>1 ^c | 148 ± 3.7 | >>1 ^c | 210 ± 3.3 | >>1 ^c | 176 ± 6.4 | Non-toxic ^b |  |  |  |  |  |  | 
6 | Cc1ccc(N2CCN(Cn3nc(CNC(=O)c4c(C)cc(C)nc4S)n(C)c3=S)CC2)cc1 [Compound 11] | 271 ± 7.1 | 2.28 | 119 ± 3.4 | 4.69 | 57.7 ± 4.8 | 1.98 | 137 ± 5.7 | 1.06 | 255 ± 4.8 | 1.12 | 242 ± 4.1 |  |  |  |  |  |  |  | 
7 | Cc1cc(C)c(C(=O)NCc2nn(CN3CCN(c4cccc(Cl)c4)CC3)c(=S)n2C(C)C)c(S)n1 [Compound 12, 4,6-dimethyl-N-[(4-(propan-2-yl)-5-thioxo-2-{[4-(3-chlorophenyl)piperazinyl]-methyl}-4,5-dihydro-1H-1,2,4-triazol-3-yl)methyl]-2-sulfanylpyridine-3-carboxamide] | 342.5 ± 3.4 | 1.30 | 263 ± 5.7 | 1.39 | 247 ± 4.9 | 0.77 | 445.9 ± 2.3 | 0.70 | 487 ± 5.9 | 0.73 | 471.2 ± 3.7 |  |  |  |  |  |  |  | 
8 | Cc1cc(C)c(C(=O)NCc2nn(CN3CCN(c4ccc([N+](=O)[O-])cc4)CC3)c(=S)n2C(C)C)c(S)n1 [Compound 13] | 436.1 ± 2.7 | 3.63 | 120 ± 8.5 | 2.98 | 146 ± 3.6 | 2.26 | 193 ± 3.7 | 1.04 | 419 ± 6.2 | 1.11 | 393 ± 7.4 |  |  |  |  |  |  |  | 
9 | COc1cccc2c1C(=O)c1c(O)c3c(c(O)c1C2=O)C[C@@](O)(C(=O)CO)C[C@@H]3O[C@H]1C[C@H](N)[C@H](O)[C@H](C)O1 [Doxorubicin, doxorubicin] |  |  |  |  |  |  |  |  |  |  |  |  | 7.62 ± 0.17 | 4.23 | 0.92 ± 0.23 | 30.67 |  |  | 
10 | Nn1c(Sc2c(O)c3ccccc3oc2=O)nnc1-c1ccncc1 [II] |  |  |  |  |  |  |  |  |  |  |  |  |  |  |  |  | 1.93 |  | 
11 | CN1CCN(Cn2nc(-c3ccncc3)n(-c3ccc(Br)cc3)c2=S)CC1 [VIII] |  |  |  |  |  |  |  |  |  |  |  |  |  |  |  |  |  | 0.021 | 
12 | O=C(O)c1cn(C2CC2)c2cc(N3CCN(Cc4c(O)ccc5ccccc45)CC3)c(F)cc2c1=O [V] |  |  |  |  |  |  |  |  |  |  |  |  |  |  |  |  |  |  | 0.97
